# Measurements taken from ChEMBL document CHEMBL3044825, “Synthesis and in vitro microbial activities of amides of pyridoquinolone” (2011).
# How the values were obtained:
# Assay type in all cases: functional
# Conditions in all cases: read-out: IZ
# Candida albicans = test: Antifungal activity against Candida albicans at 100 ug/ml by cup-plate method
# Bacillus subtilis = test: Antibacterial activity against Bacillus subtilis at 100 ug/ml by cup plate method
# Staphylococcus aureus = test: Antibacterial activity against Staphylococcus aureus at 100 ug/ml by cup-plate method
# Pseudomonas aeruginosa = test: Antibacterial activity against Pseudomonas aeruginosa at 100 ug/ml by cup-plate method
# Escherichia coli = test: Antibacterial activity against Escherichia coli at 100 ug/ml by cup-plate method
Compound,zone of inhibition at 100 µg/mL (Candida albicans) [mm],zone of inhibition at 100 µg/mL (Bacillus subtilis) [mm],zone of inhibition at 100 µg/mL (Staphylococcus aureus) [mm],zone of inhibition at 100 µg/mL (Pseudomonas aeruginosa) [mm],zone of inhibition at 100 µg/mL (Escherichia coli) [mm]
Cc1ccc(NS(=O)(=O)c2ccc(NC(=O)c3cn(CCO)c4c(cc(O)c5ncccc54)c3=O)cc2)cc1,0,6,5,0,5
O=C(NC(=S)Nc1ccccc1[N+](=O)[O-])c1cn(CCO)c2c(cc(O)c3ncccc32)c1=O,1,5,0,4,5
O=C(NC(=S)Nc1cccc([N+](=O)[O-])c1)c1cn(CCO)c2c(cc(O)c3ncccc32)c1=O,0,7,7,10,9
Cc1ccccc1NC(=S)NC(=O)c1cn(CCO)c2c(cc(O)c3ncccc32)c1=O,0,7,5,0,6
Cc1ccc(NC(=S)NC(=O)c2cn(CCO)c3c(cc(O)c4ncccc43)c2=O)cc1,1,6,0,4,6
O=C(NC(=S)Nc1cccc(O)c1)c1cn(CCO)c2c(cc(Cl)c3ncccc32)c1=O,2,9,8,6,8
COc1ccccc1NC(=S)NC(=O)c1cn(CCO)c2c(cc(Cl)c3ncccc32)c1=O,0,6,0,3,5
COc1ccc(NC(=S)NC(=O)c2cn(CCO)c3c(cc(Cl)c4ncccc43)c2=O)cc1,2,9,8,6,8
O=C(NC(=S)Nc1cccc([N+](=O)[O-])c1)c1cn(CCO)c2c(cc(Cl)c3ncccc32)c1=O,1,6,8,8,0
Cc1ccc(NC(=S)NC(=O)c2cn(CCO)c3c(cc(Cl)c4ncccc43)c2=O)cc1,0,6,6,0,6
O=C(NC(=S)Nc1ccc(O)cc1)c1cn(CCO)c2c(cc(O)c3ncccc32)c1=O,0,7,6,6,6
COc1ccccc1NC(=S)NC(=O)c1cn(CCO)c2c(cc(O)c3ncccc32)c1=O,0,0,4,4,0
Cc1ccc(NS(=O)(=O)c2ccc(NC(=O)c3cn(CCO)c4c(cc(Cl)c5ncccc54)c3=O)cc2)cc1,1,6,5,7,5
N#Cc1cc([N+](=O)[O-])ccc1NS(=O)(=O)c1ccc(NC(=O)c2cn(CCO)c3c(cc(Cl)c4ncccc43)c2=O)cc1,2,9,8,8,8
O=C(Nc1ccc(S(=O)(=O)Nc2ccc(Cl)cc2)cc1)c1cn(CCO)c2c(cc(O)c3ncccc32)c1=O,0,6,0,4,4
COc1ccccc1NS(=O)(=O)c1ccc(NC(=O)c2cn(CCO)c3c(cc(O)c4ncccc43)c2=O)cc1,1,8,6,6,0
O=C(Nc1ccc(S(=O)(=O)Nc2cccc([N+](=O)[O-])c2)cc1)c1cn(CCO)c2c(cc(O)c3ncccc32)c1=O,2,8,8,7,8
